# Experimental data taken from patent publication US10160755B2 (Plexxikon Inc., priority 2015, dated 2018).
# Target: T1, FLT3-ITD (Homo sapiens, UniProt P36888)
# T1 construct: FLT3-ITD; Invitrogen #PV6190
# T1 sequence (P36888 1-993): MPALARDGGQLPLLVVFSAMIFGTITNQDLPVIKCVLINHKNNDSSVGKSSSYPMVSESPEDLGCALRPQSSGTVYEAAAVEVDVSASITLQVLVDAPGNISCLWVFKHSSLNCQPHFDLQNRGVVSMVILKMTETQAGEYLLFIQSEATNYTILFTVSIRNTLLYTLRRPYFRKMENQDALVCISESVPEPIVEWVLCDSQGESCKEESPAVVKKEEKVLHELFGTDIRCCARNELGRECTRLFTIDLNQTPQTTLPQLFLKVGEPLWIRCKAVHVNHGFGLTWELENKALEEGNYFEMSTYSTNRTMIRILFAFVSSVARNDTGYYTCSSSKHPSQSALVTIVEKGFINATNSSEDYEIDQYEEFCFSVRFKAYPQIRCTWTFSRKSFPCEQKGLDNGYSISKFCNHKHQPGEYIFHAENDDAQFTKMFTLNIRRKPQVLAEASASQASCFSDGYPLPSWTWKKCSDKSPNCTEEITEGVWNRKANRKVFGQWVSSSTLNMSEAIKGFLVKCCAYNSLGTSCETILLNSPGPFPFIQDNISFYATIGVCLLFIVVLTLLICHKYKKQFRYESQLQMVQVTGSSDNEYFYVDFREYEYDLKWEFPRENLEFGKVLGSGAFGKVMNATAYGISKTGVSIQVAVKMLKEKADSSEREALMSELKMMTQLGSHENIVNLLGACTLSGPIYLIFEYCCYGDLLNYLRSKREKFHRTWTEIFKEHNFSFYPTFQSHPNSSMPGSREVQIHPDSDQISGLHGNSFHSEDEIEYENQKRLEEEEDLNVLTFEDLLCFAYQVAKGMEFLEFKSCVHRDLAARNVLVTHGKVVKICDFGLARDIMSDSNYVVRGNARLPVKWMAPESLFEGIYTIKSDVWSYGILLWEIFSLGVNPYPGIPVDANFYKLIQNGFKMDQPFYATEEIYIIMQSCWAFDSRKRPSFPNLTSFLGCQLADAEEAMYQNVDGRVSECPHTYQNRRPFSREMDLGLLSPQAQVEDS
# Experiment: FLT3-ITD biochemical kinase assay (AlphaScreen)
# How it was run: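 Recombinant enzyme phosphorylated biotin-poly(Glu4-Tyr) peptide (30 nM final); ATP final 10 μM for FLT3-D835Y, 100 μM for FLT3-ITD. AlphaScreen read-out: streptavidin donor and anti-phosphotyrosine (PY20) acceptor beads, 20 and 60 min at room temperature; inhibition seen as drop in 580 nm proximity signal; IC50 determined.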
row,Compound,IC50
1,"FC(F)(F)Oc1cccc(-c2cnc3[nH]cc(-c4ccc5ncn(C6CCCNC6)c5c4)c3n2)c1 (stereo not shown) [P-193, 7-[3-(3-piperidyl)benzimidazol-5-yl]-2-[3-(trifluoromethoxy)phenyl]-5H-pyrrolo[2,3-b]pyrazine]",0.0001 to 1 µM
2,"COc1ncc(-c2cnc3[nH]cc(-c4ccc5ncn(C(C)C)c5c4)c3c2)cn1 [P-269, 1-isopropyl-6-[5-(2-methoxypyrimidin-5-yl)-1H-pyrrolo[2,3-b]pyridin-3-yl]benzimidazole]",0.0001 to 1 µM
3,"CC(C)(C)n1cnc2ccc(-c3c[nH]c4ncc(C#Cc5cccc(OC(F)(F)F)c5)nc34)cc21 [P-249, 7-(3-tert-butylbenzimidazol-5-yl)-2-[2-[3-(trifluoromethoxy)phenyl]ethynyl]-5H-pyrrolo[2,3-b]pyrazine]",0.0001 to 1 µM
4,"C#Cc1cnc2[nH]cc(-c3ccc4ncn(C(C)(C)C)c4c3)c2c1 [P-244, 1-tert-butyl-6-(5-ethynyl-1H-pyrrolo[2,3-b]pyridin-3-yl)benzimidazole]",0.0001 to 1 µM
5,"CC(C)(CO)n1cnc2ccc(-c3c[nH]c4ncc(-c5cccc(NS(C)(=O)=O)c5)nc34)cc21 [P-115, N-[3-[7-[3-(2-hydroxy-1,1-dimethyl-ethyl)benzimidazol-5-yl]-5H-pyrrolo[2,3-b]pyrazin-2-yl]phenyl]methanesulfonamide]",0.0001 to 1 µM
6,"CC(C)(C)n1cnc2ccc(-c3c[nH]c4ncc(-c5cnn(C(F)F)c5)cc34)cc21 [P-251, 1-tert-butyl-6-[5-[1-(difluoromethyl)pyrazol-4-yl]-1H-pyrrolo[2,3-b]pyridin-3-yl]benzimidazole]",0.0001 to 1 µM
7,"CC(C)(C)n1cnc2ccc(-c3c[nH]c4ncc(-c5cnn(CC(F)(F)F)c5)cc34)cc21 [P-252, 1-tert-butyl-6-[5-[1-(2,2,2-trifluoroethyl)pyrazol-4-yl]-1H-pyrrolo[2,3-b]pyridin-3-yl]benzimidazole]",0.0001 to 1 µM
8,"O=S(=O)(c1cccc(-c2cnc3[nH]cc(-c4ccc5ncn(C6CCCNC6)c5c4)c3n2)c1)N1CCCC1 (stereo not shown) [P-237, 7-[3-(3-piperidyl)benzimidazol-5-yl]-2-(3-pyrrolidin-1-ylsulfonylphenyl)-5H-pyrrolo[2,3-b]pyrazine]",0.0001 to 1 µM
9,"FC(F)(F)Cn1cc(-c2cnc3[nH]cc(-c4ccc5ncn(C6CCCNC6)c5c4)c3n2)cn1 (stereo not shown) [P-258, 7-[3-(3-piperidyl)benzimidazol-5-yl]-2-[1-(2,2,2-trifluoroethyl)pyrazol-4-yl]-5H-pyrrolo[2,3-b]pyrazine]",0.0001 to 1 µM
10,"O=S1(=O)CCCCN1c1cccc(-c2cnc3[nH]cc(-c4ccc5ncn(C6CCCNC6)c5c4)c3c2)c1 (stereo not shown) [P-224, 2-[3-[3-[3-(3-piperidyl)benzimidazol-5-yl]-1H-pyrrolo[2,3-b]pyridin-5-yl]phenyl]thiazinane 1,1-dioxide]",0.0001 to 1 µM
11,"COc1cc(C#Cc2cnc3[nH]cc(-c4ccc5ncn(C(C)(C)C)c5c4)c3c2)ccn1 [P-240, 1-(tert-butyl)-6-(5-((2-methoxypyridin-4-yl)ethynyl)-1H-pyrrolo[2,3-b]pyridin-3-yl)-1H-benzo[d]imidazole]",0.0001 to 1 µM
12,"CC(C)(C)n1cnc2ccc(-c3c[nH]c4ncc(-c5cccc(N6CCCCS6(=O)=O)c5)nc34)cc21 [P-227, 2-[3-[7-(3-tert-butylbenzimidazol-5-yl)-5H-pyrrolo[2,3-b]pyrazin-2-yl]phenyl]thiazinane 1,1-dioxide]",0.0001 to 1 µM
13,"COc1cc(C(=O)Nc2cnc3[nH]cc(-c4ccc5ncn(C(C)(C)C)c5c4)c3c2)ccn1 [P-245, N-[3-(3-tert-butylbenzimidazol-5-yl)-1H-pyrrolo[2,3-b]pyridin-5-yl]-2-methoxy-pyridine-4-carboxamide]",0.0001 to 1 µM
14,"O=S1(=O)CCCN1c1cccc(-c2cnc3[nH]cc(-c4ccc5ncn(C6CCCNC6)c5c4)c3n2)c1 (stereo not shown) [P-273, 2-[3-[7-[3-(3-piperidyl)benzimidazol-5-yl]-5H-pyrrolo[2,3-b]pyrazin-2-yl]phenyl]-1,2-thiazolidine 1,1-dioxide]",0.0001 to 1 µM
15,"CC(C)S(=O)(=O)Nc1cccc(-c2cnc3[nH]cc(-c4ccc5ncn(C6CCCNC6)c5c4)c3c2)c1 (stereo not shown) [P-215, N-[3-[3-[3-(3-piperidyl)benzimidazol-5-yl]-1H-pyrrolo[2,3-b]pyridin-5-yl]phenyl]propane-2-sulfonamide]",0.0001 to 1 µM
16,"C#Cc1cnc2[nH]cc(-c3ccc4ncn(C(C)(C)C)c4c3)c2n1 [P-259, 7-(3-tert-butylbenzimidazol-5-yl)-2-ethynyl-5H-pyrrolo[2,3-b]pyrazine]",0.0001 to 1 µM
17,"O=C(Nc1cccc(F)c1)c1cnc2[nH]cc(-c3ccc4ncn(C5CCCNC5)c4c3)c2c1 (stereo not shown) [P-178, N-(3-fluorophenyl)-3-[3-(3-piperidyl)benzimidazol-5-yl]-1H-pyrrolo[2,3-b]pyridine-5-carboxamide]",0.0001 to 1 µM

# Other lines, results leading:
row,IC50,Compound
1,0.0001 to 1 µM,"COc1cnc2[nH]cc(-c3ccc4ncn(-c5ccc(Cl)cc5)c4c3)c2c1 [P-104, 1-(4-chlorophenyl)-6-(5-methoxy-1H-pyrrolo[2,3-b]pyridin-3-yl)benzimidazole]"
2,0.0001 to 1 µM,"CC(C)(C)n1cnc2ccc(-c3c[nH]c4ncc(-c5cccc(S(=O)(=O)N6CCCC6)c5)cc34)cc21 [P-220, 1-tert-butyl-6-[5-(3-pyrrolidin-1-ylsulfonylphenyl)-1H-pyrrolo[2,3-b]pyridin-3-yl]benzimidazole]"
3,0.0001 to 1 µM,"COc1cnc2[nH]cc(-c3ccc4ncn(-c5cccc(Cl)c5)c4c3)c2c1 [P-105, 1-(3-chlorophenyl)-6-(5-methoxy-1H-pyrrolo[2,3-b]pyridin-3-yl)benzimidazole]"
4,0.0001 to 1 µM,"C(#Cc1cnc2[nH]cc(-c3ccc4ncn(C5CCCNC5)c4c3)c2n1)c1ccccc1 (stereo not shown) [P-248, 2-(2-phenylethynyl)-7-[3-(3-piperidyl)benzimidazol-5-yl]-5H-pyrrolo[2,3-b]pyrazine]"
5,0.0001 to 1 µM,"COC(=O)N1CCCC(n2cnc3ccc(-c4c[nH]c5ncc(-c6ccnc(OC)c6)nc45)cc32)C1 (stereo not shown) [P-261, methyl 3-(6-(2-(2-methoxypyridin-4-yl)-5H-pyrrolo[2,3-b]pyrazin-7-yl)-1H-benzo[d]imidazol-1-yl)piperidine-1-carboxylate]"
6,0.0001 to 1 µM,"Cn1cnc2ccc(-c3c[nH]c4ncc(-c5cnn(CC(F)(F)F)c5)cc34)cc21 [P-175, 1-methyl-6-[5-[1-(2,2,2-trifluoroethyl)pyrazol-4-yl]-1H-pyrrolo[2,3-b]pyridin-3-yl]benzimidazole]"
7,0.0001 to 1 µM,"COc1cnc2[nH]cc(-c3ccc4ncn(Cc5ccc(F)cc5)c4c3)c2c1 [P-110, 1-[(4-fluorophenyl)methyl]-6-(5-methoxy-1H-pyrrolo[2,3-b]pyridin-3-yl)benzimidazole]"
8,0.0001 to 1 µM,"CC(C)(C)n1cnc2ccc(-c3c[nH]c4ncc(-c5cccc(N6CCCCS6(=O)=O)c5)cc34)cc21 [P-221, 2-[3-[3-(3-tert-butylbenzimidazol-5-yl)-1H-pyrrolo[2,3-b]pyridin-5-yl]phenyl]thiazinane 1,1-dioxide]"
9,0.0001 to 1 µM,"COc1cnc2[nH]cc(-c3ccc4ncn(-c5ccc(F)cc5)c4c3)c2c1 [P-103, 1-(4-fluorophenyl)-6-(5-methoxy-1H-pyrrolo[2,3-b]pyridin-3-yl)benzimidazole]"
10,0.0001 to 1 µM,"CC(C)(C)n1cnc2ccc(-c3c[nH]c4ncc(C#Cc5cccc(C#N)c5)cc34)cc21 [P-242, 3-[2-[3-(3-tert-butylbenzimidazol-5-yl)-1H-pyrrolo[2,3-b]pyridin-5-yl]ethynyl]benzonitrile]"
11,0.0001 to 1 µM,"N#Cc1cccc(NC(=O)c2cnc3[nH]cc(-c4ccc5ncn(C6CCCNC6)c5c4)c3c2)c1 (stereo not shown) [P-219, N-(3-cyanophenyl)-3-(1-(piperidin-3-yl)-1H-benzo[d]imidazol-6-yl)-1H-pyrrolo[2,3-b]pyridine-5-carboxamide]"
12,0.0001 to 1 µM,"CC(C)(C)n1cnc2ccc(-c3c[nH]c4ncc(-c5cccc(S(=O)(=O)N6CCCC6)c5)nc34)cc21 [P-229, 7-(3-tert-butylbenzimidazol-5-yl)-2-(3-pyrrolidin-1-ylsulfonylphenyl)-5H-pyrrolo[2,3-b]pyrazine]"
13,0.0001 to 1 µM,"c1cc(-c2cnc3[nH]cc(-c4ccc5ncn(C6CCCNC6)c5c4)c3n2)cc(N2CCOCC2)n1 (stereo not shown) [P-262, 4-[4-[7-[3-(3-piperidyl)benzimidazol-5-yl]-5H-pyrrolo[2,3-b]pyrazin-2-yl]-2-pyridyl]morpholine]"
14,0.0001 to 1 µM,"CC(C)(C)n1cnc2ccc(-c3c[nH]c4ncc(C(=O)Nc5cccc(C#N)c5)cc34)cc21 [P-218, 3-(3-tert-butylbenzimidazol-5-yl)-N-(3-cyanophenyl)-1H-pyrrolo[2,3-b]pyridine-5-carboxamide]"
